The test system of one assay is recombinant NL4-3 virus (Renilla luciferase in nef, Gag P373S). Put plainly: HIV cell culture assay (luciferase reporter, MT-2 cells). It is filed as cell-based, HIV-1. As to conditions: MT-2 cells infected for 4-5 days with NLRluc recombinants; luciferase activity; serial dilutions of inhibitor. Put shortly:
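MT-2 cells infected with recombinant NL4-3 carrying Renilla luciferase in place of part of nef and Gag P373S, virus made by 293T transfection. Infection ran 4-5 days with serial inhibitor dilutions. Antiviral activity read as luciferase activity (Dual Luciferase reagents mixed with lysis buffer).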
A general note: Reporter assays use an easily measured gene product as a stand-in for the process of interest.
As usually defined, the EC50 is the concentration needed to bring the measured effect to its halfway point. For the compound `CC(CO)[C@@H]1CC[C@]2(NCCN3CCS(=O)(=O)CC3)CC[C@]3(C)[C@H](CC[C@@H]4[C@@]5(C)CC=C(c6ccc(C(=O)O)cc6)C(C)(C)[C@@H]5CC[C@]43C)[C@@H]12` (single isomer, unassigned) [Example B5], the EC50 came out at 1.15 nM.
On to `CC([C@@H]1CC[C@]2(NCCN3CCS(=O)(=O)CC3)CC[C@]3(C)[C@H](CC[C@@H]4[C@@]5(C)CC=C(c6ccc(C(=O)O)cc6)C(C)(C)[C@@H]5CC[C@]43C)[C@@H]12)N(C)C` (single isomer, unassigned) [Example B39], for which the EC50 worked out at 4.33 nM.

Staying with this assay, now noted: Renilla, NL43, MT-2 cells infected for 4-5 days with NLRluc recombinants; luciferase activity; serial dilutions of inhibitor.
As to `C=C(COCCN1CCOCC1)[C@@H]1CC[C@]2(C(=O)O)CC[C@]3(C)[C@H](CC[C@@H]4[C@@]5(C)CC=C(c6ccc(C(=O)O)cc6)C(C)(C)[C@@H]5CC[C@]43C)[C@@H]12` [Example 11, (1R,3aS,5aR,5bR,7aR,11aS,11bR,13aR,13bS)-9-(4-carboxyphenyl)-5a,5b,8,8,11a-pentamethyl-1-(3-(2-morpholinoethoxy)prop-1-en-2-yl)-2,3,3a,4,5,5a,5b,6,7,7a,8,11,11a,11b,12,13,13a,13b-octadecahydro-1H-cyclopenta[a]chrysene-3a-carboxylic acid], the EC50 stood at 20 nM.
With `CC1([C@@H]2CC[C@]3(NCCN4CCS(=O)(=O)CC4)CC[C@]4(C)[C@H](CC[C@@H]5[C@@]6(C)CC=C(c7ccc(C(=O)O)cc7)C(C)(C)[C@@H]6CC[C@]54C)[C@@H]23)CC1` [Example B52, 4-((1R,3aS,5aR,5bR,7aR,11aS,11bR,13aR,13bR)-3a-((2-(1,1-dioxidothiomorpholino)ethyl)amino)-5a,5b,8,8,11a-pentamethyl-1-(1-methylcyclopropyl)-2,3,3a,4,5,5a,5b,6,7,7a,8,11,11a,11b,12,13,13a,13b-octadecahydro-1H-cyclopenta[a]chrysen-9-yl)benzoic acid], the EC50 turned out to be 0.924 nM.
As for `CC1(C)C(c2ccc(C(=O)O)cc2)=CC[C@]2(C)[C@H]3CC[C@@H]4[C@H]5[C@H](N)CC[C@]5(NCCN5CCS(=O)(=O)CC5)CC[C@@]4(C)[C@]3(C)CC[C@@H]12` [Example B33, 4-((1R,3aR,5aR,5bR,7aR,11aS,11bR,13aR,13bS)-1-amino-3a-((2-(1,1-dioxidothiomorpholino)ethyl)amino)-5a,5b,8,8,11a-pentamethyl-2,3,3a,4,5,5a,5b,6,7,7a,8,11,11a,11b,12,13,13a,13b-octadecahydro-1H-cyclopenta[a]chrysen-9-yl)benzoic acid], the EC50 came to 130 nM.
Same read-out and setting: the value for `CN(C(=O)C(F)(F)F)[C@@H]1CC[C@]2(NCCN3CCS(=O)(=O)CC3)CC[C@]3(C)[C@H](CC[C@@H]4[C@@]5(C)CC=C(c6ccc(C(=O)O)cc6)C(C)(C)[C@@H]5CC[C@]43C)[C@@H]12` [Example B44, 4-((1R,3aR,5aR,5bR,7aR,11aS,11bR,13aR,13bS)-3a-((2-(1,1-dioxidothiomorpholino)ethyl)amino)-5a,5b,8,8,11a-pentamethyl-1-(2,2,2-trifluoro-N-methylacetamido)-2,3,3a,4,5,5a,5b,6,7,7a,8,11,11a,11b,12,13,13a,13b-octadecahydro-1H-cyclopenta[a]chrysen-9-yl)benzoic acid] was 5.92 nM; that for `CC1(C)C(c2ccc(C(=O)O)cc2)=CC[C@]2(C)[C@H]3CC[C@@H]4[C@H]5[C@H](C(=O)O)CC[C@]5(NCCN5CCS(=O)(=O)CC5)CC[C@@]4(C)[C@]3(C)CC[C@@H]12` [Example B17, (1R,3aS,5aR,5bR,7aR,11aS,11bR,13aR,13bS)-9-(4-carboxyphenyl)-3a-((2-(1,1-dioxidothiomorpholino)ethyl)amino)-5a,5b,8,8,11a-pentamethyl-2,3,3a,4,5,5a,5b,6,7,7a,8,11,11a,11b,12,13,13a,13b-octadecahydro-1H-cyclopenta[a]chrysene-1-carboxylic acid] was 2070 nM; that for `CC(=NO)[C@@H]1CC[C@]2(NCCN3CCS(=O)(=O)CC3)CC[C@]3(C)[C@H](CC[C@@H]4[C@@]5(C)CC=C(c6ccc(C(=O)O)cc6)C(C)(C)[C@@H]5CC[C@]43C)[C@@H]12` (single isomer, unassigned) [Example B14] was 3.75 nM.
As to `C=C(COCCN1CCOCC1)[C@@H]1CC[C@]2(C(=O)NCCCn3ccnc3)CC[C@]3(C)[C@H](CC[C@@H]4[C@@]5(C)CC=C(c6ccc(C(=O)O)cc6)C(C)(C)[C@@H]5CC[C@]43C)[C@@H]12` [Example 16, 4-((1R,3aS,5aR,5bR,7aR,11aS,11bR,13aR,13bS)-3a-(3-(1H-imidazol-1-yl)propylcarbamoyl)-5a,5b,8,8,11a-pentamethyl-1-(3-(2-morpholinoethoxy)prop-1-en-2-yl)-2,3,3a,4,5,5a,5b,6,7,7a,8,11,11a,11b,12,13,13a,13b-octadecahydro-1H-cyclopenta[a]chrysen-9-yl)benzoic acid], the EC50 amounted to 2.48 nM.
On the same count and under the same terms, the value for `CC(=CC(=O)O)[C@@H]1CC[C@]2(C(=O)NCCN(C)C)CC[C@]3(C)[C@H](CC[C@@H]4[C@@]5(C)CC[C@H](c6ccc(C(=O)O)cc6)C(C)(C)[C@@H]5CC[C@]43C)[C@@H]12` [Example 19, 4-((1R,3aS,5aR,5bR,7aS,9S,11aS,11bR,13aR,13bR)-1-(1-carboxyprop-1-en-2-yl)-3a-((2-(dimethylamino)ethyl)carbamoyl)-5a,5b,8,8,11a-pentamethylicosahydro-1H-cyclopenta[a]chrysen-9-yl)benzoic acid] was 20 nM.
The same measure, in the same setting: the same measure for `CC(CC(=O)O)[C@@H]1CC[C@]2(C(=O)NCCN(C)C)CC[C@]3(C)[C@H](CC[C@@H]4[C@@]5(C)CC[C@H](c6ccc(C(=O)O)cc6)C(C)(C)[C@@H]5CC[C@]43C)[C@@H]12` (single isomer, unassigned) [Example 20]: 30 nM; for `CC(C)(C)OC(=O)N[C@@H]1CC[C@]2(C(=O)O)CC[C@]3(C)[C@H](CC[C@@H]4[C@@]5(C)CC=C(C6=CCC(C(=O)O)CC6)C(C)(C)[C@@H]5CC[C@]43C)[C@@H]12` (stereo partly drawn) [Example A8, (1R,3aR,5aR,5bR,7aR,11aS,11bR,13aR,13bR)-1-((tert-butoxycarbonyl)amino)-9-(4-carboxycyclohex-1-en-1-yl)-5a,5b,8,8,11a-pentamethyl-2,3,3a,4,5,5a,5b,6,7,7a,8,11,11a,11b,12,13,13a,13b-octadecahydro-1H-cyclopenta[a]chrysene-3a-carboxylic acid]: 6.56 nM.
The same measure, in the same setting: the value for `CN[C@]12CC[C@@H](C3(C)CC3)[C@@H]1[C@H]1CC[C@@H]3[C@@]4(C)CC[C@H](c5ccc(C(=O)O)cc5)C(C)(C)[C@@H]4CC[C@@]3(C)[C@]1(C)CC2` [Example B55] was 1.51 nM.
Consider `CC1([C@@H]2CC[C@]3(NCCN4CCN(S(C)(=O)=O)CC4)CC[C@]4(C)[C@H](CC[C@@H]5[C@@]6(C)CC=C(c7ccc(C(=O)O)cc7)C(C)(C)[C@@H]6CC[C@]54C)[C@@H]23)CC1` [Example B56, 4-((1R,3aS,5aR,5bR,7aR,11aS,11bR,13aR,13bR)-5a,5b,8,8,11a-pentamethyl-1-(1-methylcyclopropyl)-3a-(2-(4-(methylsulfonyl)piperazin-1-yl)ethylamino)-2,3,3a,4,5,5a,5b,6,7,7a,8,11,11a,11b,12,13,13a,13b-octadecahydro-1H-cyclopenta[a]chrysen-9-yl)benzoic acid], for which the EC50 came to 2.51 nM.
For `CC1(C)C(c2ccc(C(=O)O)cc2)=CC[C@]2(C)[C@H]3CC[C@@H]4[C@H]5[C@H](NC(=O)N6CCCC6)CC[C@]5(NCCN5CCS(=O)(=O)CC5)CC[C@@]4(C)[C@]3(C)CC[C@@H]12` [Example B30, 4-((1R,3aR,5aR,5bR,7aR,11aS,11bR,13aR,13bS)-3a-((2-(1,1-dioxidothiomorpholino)ethyl)amino)-5a,5b,8,8,11a-pentamethyl-1-(pyrrolidine-1-carboxamido)-2,3,3a,4,5,5a,5b,6,7,7a,8,11,11a,11b,12,13,13a,13b-octadecahydro-1H-cyclopenta[a]chrysen-9-yl)benzoic acid], the EC50 was found to be 2.96 nM.
In the case of `COCC(C)(OC)[C@@H]1CC[C@]2(NCCN3CCS(=O)(=O)CC3)CC[C@]3(C)[C@H](CC[C@@H]4[C@@]5(C)CC=C(c6ccc(C(=O)O)cc6)C(C)(C)[C@@H]5CC[C@]43C)[C@@H]12` (single isomer, unassigned) [Example B2], the EC50 is 1.05 nM.
Consider `C=C(CN(C)CCN(C)C)[C@@H]1CC[C@]2(C(=O)O)CC[C@]3(C)[C@H](CC[C@@H]4[C@@]5(C)CC=C(c6ccc(C(=O)O)cc6)C(C)(C)[C@@H]5CC[C@]43C)[C@@H]12` [Example 4, (1R,3aS,5aR,5bR,7aR,11aS,11bR,13aR,13bS)-9-(4-carboxyphenyl)-1-(3-((2-(dimethylamino)ethyl)(methyl)amino)prop-1-en-2-yl)-5a,5b,8,8,11a-pentamethyl-2,3,3a,4,5,5a,5b,6,7,7a,8,11,11a,11b,12,13,13a,13b-octadecahydro-1H-cyclopenta[a]chrysene-3a-carboxylic acid], for which the EC50 turned out to be 1.42 nM.
Consider `CC(C)(O)[C@@H]1CC[C@]2(NCCN3CCS(=O)(=O)CC3)CC[C@]3(C)[C@H](CC[C@@H]4[C@@]5(C)CC=C(C6=CCC(C(=O)O)CC6)C(C)(C)[C@@H]5CC[C@]43C)[C@@H]12` (stereo partly drawn) [Example 22, 4-((1R,3aS,5aR,5bR,7aR,11aS,11bR,13aR,13bS)-3a-((2-(1,1-dioxidothiomorpholino)ethyl)amino)-1-(2-hydroxypropan-2-yl)-5a,5b,8,8,11a-pentamethyl-2,3,3a,4,5,5a,5b,6,7,7a,8,11,11a,11b,12,13,13a,13b-octadecahydro-1H-cyclopenta[a]chrysen-9-yl)cyclohex-3-enecarboxylic acid], for which the EC50 was found to be 0.519 nM.

The values are drawn from patent US20140221361A1, “C-19 MODIFIED TRITERPENOIDS WITH HIV MATURATION INHIBITORY ACTIVITY” (priority 2013, published 2014).
